Earlier results, collected in publication PMC12304798 (British Journal of Clinical Pharmacology, 2025).
Like-named read-outs stand apart in the source and are kept apart here.

Assays:
[1] = system: NE activity; conditions: once-daily doses, healthy volunteers
[2] = system: NE activity
[3] = healthy Japanese and Caucasian volunteers

Structure (SMILES) | reduction in NE activity [1] | inhibitory effect on NE activity ([2]; brensocatib 10 mg) | inhibitory effect on NE activity ([2]; brensocatib 25 mg) | skin exfoliation, share of volunteers [3]
CC[C@@H](/C=C/C(=O)N1CCc2ccccc21)NC(=O)C1(N)CCOCC1 [GSK2793660] | approximately 20% | – | – | –
Cn1c(=O)oc2ccc(-c3ccc(C[C@@H](C#N)NC(=O)[C@@H]4CNCCCO4)cc3)cc21 [brensocatib] | – | 30% | 49% | 10%
